System: 653999-131-R-J2-PDC complex spheroid viability
Assay: Anticancer human tumor 653999-131-R-J2-PDC patient-derived lung adenocarcinoma cell line growth inhibition
Settings: for IC50: curve of first compound; for viability, T/C: stronger effect = lower value
From the text: Multicellular complex tumor spheroid response to LSD1 Inhibitor Iadademstat in combination with a variety of drugs and investigational agents in selected tumor cell lines
The current study was undertaken to assess response to LSD1 inhibitors in combination with standard-of-care drugs and investigational agents in solid tumor complex spheroid models as well as in the K-562 leukemia. Complex spheroids include a stromal component modeled by human endothelial cells (HUVEC) and fibroblasts modeled by human mesenchymal stem cells (MSCs). The concentration ranges selected for each drug and investigational agent were based upon clinically achievable concentrations if the clinical Cmax of the agent was known.
Compounds. The drugs and investigational agents used in this study are listed on Table 1. All of the agents used, including staurosporine (NSC755774) and gemcitabine (NSC613327), were obtained from the Developmental Therapeutics Program, NCI. FDA-approved anticancer drugs are available from the NCI at http://dtp.nci.nih.gov/branches/dscb/oncology_drugset_explanation.html. Drugs and investigational agents were >95% pure by proton nuclear magnetic resonance (NMR) and liquid chromatography/mass spectrometry (LC/MS). Stock solutions were prepared at 400x in DMSO, stored at -70 degrees C, and diluted in fresh medium prior to their use. The final concentration of DMSO in cell culture wells never exceeded 0.25% (v/v). The FDA-approved anticancer drug set is available from the Developmental Therapeutics Program at https://dtp.cancer.gov/organization/dscb/obtaining/available_plates.htm. All drugs and investigational agents were tested over a range starting from a high concentration at or near the clinical Cmax and decreasing in half-log increments. If the clinical Cmax for an agent had not been determined, the highest concentration tested was 10 microM.
Cell Lines. The patient-derived cancer cell (PDC) lines: 292921-168-R-J2-PDC, K24384-001-R-PDC, and 521955-158-R2-J5-PDC pancreatic carcinomas, 556581-035-R-J1 ovarian carcinoma, 324938-238-R-J1-PDC, 855422-203-R-J1-PDC and 883617-216-R-J1-PDC urothelial bladder carcinomas, 743489-274-T-PDC renal cell carcinoma, 138582-R-J1 Merkel cell tumor, K60290-347-R-J1 and K57222-313-R-J1-PDC glioblastomas, 653999-131-R-J2-PDC, LG0703-F948-PDC, and 349418-098-R-PDC non-small cell lung carcinomas, 885512-296-R-J2-PDC, 171881-019-R-J1-PDC breast carcinomas and 186277-243-T-J2-PDC and 233499-124-R-J2-PDC colon carcinomas were obtained from the NCI Patient-Derived Models Repository (PDMR, https://pdmr.cancer.gov). The established cell lines NCI/ADR-RES (RRID:CVCL_14520 and OVCAR-5 (RRID:CVCL_1628) ovarian carcinomas, 786-O (RRID:CVCL_1051) and A498 (RRID:CVCL_A498) renal cell carcinoma, NCI-H211 (ATCC, cat. CRL-5824; RRID:CVCL_1529), NCI-H196 (ATCC, cat. CRL-5823, RRID:CVCL_1509), SW 1271 (ATCC, cat. CRL-2177, RRID:CVCL_1716) and NCI-H1876 (ATCC, cat. CRL-5902, RRID:CVCL_1503) small cell lung carcinomas, MDA-MB-231 (RRID:CVCL_0062) and MDA-MB-468 (RRID:CVCL_0419)breast carcinomas (10-12). Pooled donor human umbilical vein endothelial cells (HUVEC, Lonza, cat. CC-2519) and human mesenchymal stem cells (hMSC, Lonza, cat. PT-2501) were purchased from Lonza (Walkersville, MD).
Cell Culture. All cells were maintained in an incubator at 37 degrees C and 5% CO2 with 95% humidity. The PDC lines were cultured according to standard operating procedures established by the NCI PDMR (https://pdmr.cancer.gov). Briefly all PDCs were thawed and cultured in Matrigel-coated flasks prepared with a working solution of 1X Ham's F-12 nutrient mix, without supplementation (Invitrogen, Waltham, MA, cat. 11765054), 100 U/mL penicillin-streptomycin (Invitrogen, cat. 15140122), and 2.5% Matrigel (Corning Inc., Corning, NY, cat. 354248) for the first three passages. […]

[1] = second compound 0.1 µM, first compound 0.00316 µM
[2] = second compound 0.1 µM, first compound 0.01 µM
[3] = second compound 0.1 µM, first compound 0.0316 µM
[4] = second compound 0.1 µM, first compound 0.1 µM
[5] = second compound 0.316 µM, first compound 0.00316 µM
[6] = second compound 0.316 µM, first compound 0.01 µM
[7] = second compound 0.316 µM, first compound 0.0316 µM
[8] = second compound 0.316 µM, first compound 0.1 µM
[9] = second compound 1 µM, first compound 0.00316 µM
[10] = second compound 1 µM, first compound 0.01 µM
[11] = second compound 1 µM, first compound 0.0316 µM
[12] = second compound 1 µM, first compound 0.1 µM
[13] = second compound 3.16 µM, first compound 0.00316 µM
[14] = second compound 3.16 µM, first compound 0.01 µM
[15] = second compound 3.16 µM, first compound 0.0316 µM
[16] = second compound 3.16 µM, first compound 0.1 µM
[17] = second compound 10 µM, first compound 0.00316 µM
[18] = second compound 10 µM, first compound 0.01 µM
[19] = second compound 10 µM, first compound 0.0316 µM
[20] = second compound 10 µM, first compound 0.1 µM
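Further: spheroids exposed to agents for seven days before readout.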

## CC[C@@]1(O)C(=O)OCc2c1cc1n(c2=O)Cc2cc3c(CN(C)C)c(O)ccc3nc2-1 + NC1CC1c1ccc(-c2cccc(O)c2)cc1
Second compound 0.1 µM
  IC50: 11.6 nM
Second compound 0.316 µM
  IC50: 9.2 nM
Second compound 1 µM
  IC50: 9.32 nM
Second compound 3.16 µM
  IC50: 11.3 nM
Second compound 10 µM
  IC50: 13.9 nM
Second compound 0.1 µM, first compound 0.000316 µM
  viability, T/C: 114%
Second compound 0.1 µM, first compound 0.001 µM
  viability, T/C: 92.8%
[1]
  viability, T/C: 85%
[2]
  viability, T/C: 49.6%
[3]
  viability, T/C: 33.6%
[4]
  viability, T/C: 27.9%
Second compound 0.316 µM, first compound 0.000316 µM
  viability, T/C: 111%
Second compound 0.316 µM, first compound 0.001 µM
  viability, T/C: 108%
[5]
  viability, T/C: 83.8%
[6]
  viability, T/C: 45.6%
[7]
  viability, T/C: 35.6%
[8]
  viability, T/C: 23.2%
Second compound 1 µM, first compound 0.000316 µM
  viability, T/C: 82.6%
Second compound 1 µM, first compound 0.001 µM
  viability, T/C: 101%
[9]
  viability, T/C: 79.6%
[10]
  viability, T/C: 47.4%
[11]
  viability, T/C: 35.8%
[12]
  viability, T/C: 25.5%
Second compound 3.16 µM, first compound 0.000316 µM
  viability, T/C: 91.6%
Second compound 3.16 µM, first compound 0.001 µM
  viability, T/C: 85.8%
[13]
  viability, T/C: 87.1%
[14]
  viability, T/C: 52%
[15]
  viability, T/C: 31.9%
[16]
  viability, T/C: 27.9%
Second compound 10 µM, first compound 0.000316 µM
  viability, T/C: 86.9%
Second compound 10 µM, first compound 0.001 µM
  viability, T/C: 87.6%
[17]
  viability, T/C: 80.7%
[18]
  viability, T/C: 54.9%
[19]
  viability, T/C: 36.1%
[20]
  viability, T/C: 26.4%

## COc1cc(C2c3cc4c(cc3C(OC3OC5COC(C)OC5C(O)C3O)C3COC(=O)C23)OCO4)cc(OC)c1O (stereo not given) + NC1CC1c1ccc(-c2cccc(O)c2)cc1
Second compound 0.1 µM
  IC50: 166 nM
Second compound 0.316 µM
  IC50: 135 nM
Second compound 1 µM
  IC50: 110 nM
Second compound 3.16 µM
  IC50: 97.6 nM
Second compound 10 µM
  IC50: 248 nM
Second compound 0.1 µM, first compound 0.00949 µM
  viability, T/C: 83.5%
Second compound 0.1 µM, first compound 0.03 µM
  viability, T/C: 67.2%
Second compound 0.1 µM, first compound 0.0949 µM
  viability, T/C: 57.9%
Second compound 0.1 µM, first compound 0.3 µM
  viability, T/C: 41.4%
Second compound 0.1 µM, first compound 0.949 µM
  viability, T/C: 37%
Second compound 0.1 µM, first compound 3 µM
  viability, T/C: 27.8%
Second compound 0.316 µM, first compound 0.00949 µM
  viability, T/C: 75.4%
Second compound 0.316 µM, first compound 0.03 µM
  viability, T/C: 62.9%
Second compound 0.316 µM, first compound 0.0949 µM
  viability, T/C: 50.3%
Second compound 0.316 µM, first compound 0.3 µM
  viability, T/C: 45.9%
Second compound 0.316 µM, first compound 0.949 µM
  viability, T/C: 34.8%
Second compound 0.316 µM, first compound 3 µM
  viability, T/C: 25.2%
Second compound 1 µM, first compound 0.00949 µM
  viability, T/C: 75.7%
Second compound 1 µM, first compound 0.03 µM
  viability, T/C: 64%
Second compound 1 µM, first compound 0.0949 µM
  viability, T/C: 51.8%
Second compound 1 µM, first compound 0.3 µM
  viability, T/C: 38.3%
Second compound 1 µM, first compound 0.949 µM
  viability, T/C: 35.9%
Second compound 1 µM, first compound 3 µM
  viability, T/C: 26.1%
Second compound 3.16 µM, first compound 0.00949 µM
  viability, T/C: 77.3%
Second compound 3.16 µM, first compound 0.03 µM
  viability, T/C: 66.2%
Second compound 3.16 µM, first compound 0.0949 µM
  viability, T/C: 49.4%
Second compound 3.16 µM, first compound 0.3 µM
  viability, T/C: 39.5%
Second compound 3.16 µM, first compound 0.949 µM
  viability, T/C: 32.8%
Second compound 3.16 µM, first compound 3 µM
  viability, T/C: 30.5%
Second compound 10 µM, first compound 0.00949 µM
  viability, T/C: 73%
Second compound 10 µM, first compound 0.03 µM
  viability, T/C: 65.9%
Second compound 10 µM, first compound 0.0949 µM
  viability, T/C: 61.5%
Second compound 10 µM, first compound 0.3 µM
  viability, T/C: 46.3%
Second compound 10 µM, first compound 0.949 µM
  viability, T/C: 39%
Second compound 10 µM, first compound 3 µM
  viability, T/C: 31.1%

## Nc1ncn(C2CC(O)C(CO)O2)c(=O)n1 (stereo not given) + NC1CC1c1ccc(-c2cccc(O)c2)cc1
Second compound 0.1 µM
  IC50: > 1000 nM
Second compound 0.316 µM
  IC50: > 1000 nM
Second compound 1 µM
  IC50: > 1000 nM
Second compound 3.16 µM
  IC50: > 1000 nM
Second compound 10 µM
  IC50: > 1000 nM
[1]
  viability, T/C: 103%
[2]
  viability, T/C: 101%
[3]
  viability, T/C: 96.3%
[4]
  viability, T/C: 79.4%
Second compound 0.1 µM, first compound 0.316 µM
  viability, T/C: 83.6%
Second compound 0.1 µM, first compound 1 µM
  viability, T/C: 73.5%
[5]
  viability, T/C: 87.8%
[6]
  viability, T/C: 113%
[7]
  viability, T/C: 87.8%
[8]
  viability, T/C: 87.5%
Second compound 0.316 µM, first compound 0.316 µM
  viability, T/C: 85.4%
Second compound 0.316 µM, first compound 1 µM
  viability, T/C: 79.9%
[9]
  viability, T/C: 91.2%
[10]
  viability, T/C: 92%
[11]
  viability, T/C: 95.5%
[12]
  viability, T/C: 81.3%
Second compound 1 µM, first compound 0.316 µM
  viability, T/C: 86.5%
Second compound 1 µM, first compound 1 µM
  viability, T/C: 67.5%
[13]
  viability, T/C: 94%
[14]
  viability, T/C: 112%
[15]
  viability, T/C: 93.7%
[16]
  viability, T/C: 101%
Second compound 3.16 µM, first compound 0.316 µM
  viability, T/C: 93.8%
Second compound 3.16 µM, first compound 1 µM
  viability, T/C: 90%
[17]
  viability, T/C: 94.3%
[18]
  viability, T/C: 103%
[19]
  viability, T/C: 90.7%
[20]
  viability, T/C: 93.5%
Second compound 10 µM, first compound 0.316 µM
  viability, T/C: 84.8%
Second compound 10 µM, first compound 1 µM
  viability, T/C: 95.6%

Source: PubChem BioAssay AID1918939 (Molecular Pharmacology Branch, DTP, NCI, 2023)
